Data set [1] concerns the target T1, ALK5 T204D (kinase domain of human ALK5, amino acids 200-503) (Homo sapiens, UniProt P36897, T204D).
T1 construct: The kinase domain of human ALK5 (amino acids 200-503); made in house; host or cells: insect cells (baculovirus expression)
T1 sequence (P36897 200-503 T204D): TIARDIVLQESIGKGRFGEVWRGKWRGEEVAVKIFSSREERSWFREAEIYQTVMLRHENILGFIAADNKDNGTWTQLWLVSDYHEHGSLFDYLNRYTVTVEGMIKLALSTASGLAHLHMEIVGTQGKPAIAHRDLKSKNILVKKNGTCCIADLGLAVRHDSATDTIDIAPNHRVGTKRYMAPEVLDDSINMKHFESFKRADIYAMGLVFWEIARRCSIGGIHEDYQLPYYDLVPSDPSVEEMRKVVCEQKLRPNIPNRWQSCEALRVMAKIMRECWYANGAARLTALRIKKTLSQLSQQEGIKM
Nature of the data set: ALK5 kinase activity, [33P] phosphate incorporation into casein. Type of data set: biochemical. The following applies: casein substrate, 1 μM unlabelled ATP. The procedure:
The kinase activity of ALK5 is assessed by measuring radiolabelled phosphate [33P] incorporation in to the generic substrate, casein. The kinase domain of human ALK5 (amino acids 200-503) is fused to an N-terminal histidine tag. The kinase activity of ALK5 is rendered constitutive via point mutation at amino acid 204 (threonine to aspartate modification, ALK5 T204D) and the kinase construct is engineered to be expressed from a baculovirus expression construct in insect cells. The purified, recombinantly-expressed histidine-tagged ALK5 T204D protein is dissolved at 5.4 mg/ml in 50 mM Tris-HCl pH 8.0, 150 mM NaCl, 5 mM DTT. ALK5 T204D is dissolved to 2.5 μg/ml in assay buffer (Assay buffer: 20 mM Tris-HCl pH 7.4, 10 mM MgCl2, 2 mM MnCl2) on the day of use.
Test compounds and reference compounds are dissolved in assay buffer without DTT containing 5% (v/v) DMSO. Stock solutions of test and reference compounds are diluted in assay buffer with DTT (1.25 mM) containing 4.5% (v/v) DMSO. 10 μl of test or reference compound are added to the appropriate wells of 96 well U-bottomed plate. Total enzyme activity is determined by measuring ALK5 T204D activity in the absence of ALK5 kinase inhibitor reference compounds. Non-specific binding (NSB) is determined by measuring the activity of ALK5 T204D in the presence of ALK5 kinase inhibitor reference compounds. 10 μl of dephosphorylated casein stock solution (dephosphorylated casein is dissolved in ddH2O at 20 mg/ml) is added per well (200 μg/well final assay concentration). 20 μl of ALK5 T204D (2.5 μg/ml solution) is added per well (50 ng/well final assay concentration). The plates are left to incubate at room temperature for 10 minutes.
10 μl of ATP mix is added to the well to initiate the reaction (0.66 nM [^33P]ATP/1 μM unlabelled ATP/well final assay concentration). The ATP mix is prepared as follows, unlabelled ATP (3 mM) is dissolved in ddH2O and pH adjusted to 7.4. The stock concentration of [^33P]ATP is 10 μCi/μl. The appropriate volume of [^33P]ATP is added to unlabelled ATP solution such that the final assay concentration per well is 0.1 μCi. Following addition of the ATP mix, the plates are incubated at room temperature for 50 minutes. The kinase reaction is terminated by the addition of 50 μL Stop Buffer (20 mM Tris-HCl pH 7.4, 10 mM EDTA).
75 μl/well from the reaction plate is transferred to a Multiscreen-IP plate (MultiScreen-IP plates are prepared by added 50 μL of 70% (v/v) ethanol per well and incubated for 5 minutes at room temperature. The ethanol is removed by aspiration via a MultiScreen HTS Vaccum Manifold unit (Millipore, Cat no: MSVMHT500). The plates are washed twice by adding 200 μl/well ddH2O). The MultiScreen-IP plate is incubated at room temperature for 30 minutes to allowing binding of casein to the plate. The MultiScreen-IP plates are washed three times by adding 200 μl/well 100 mM phosphoric acid solution and the gasket is carefully removed from the back of the MultiScreen-IP plate and the plate dried in the oven for 30 minutes. The MultiScreen-IP plate is backsealed, 50 μL of Microscint™20 is added, then the plates are topsealed and radiolabelled casein detected and quantified on a TopCount™ plate-reader using the ^33P scintillation protocol.

The test system of data set [2] is dimethylnitrosamine induced liver fibrosis. The note with it: rat, cited from earlier work.
For data set [3], the system named is bleomycin-induced pulmonary fibrosis. The following applies: bleomycin-treated rats; cited from earlier work.
The mark [4] stands for this setting: dimethylnitrosamine induced liver fibrosis, given therapeutically.

Results on seven molecules are retold here after patent publication US8431578B2, “Organic compounds” (Novartis AG, priority 2008, dated 2013).

The molecule `CC(C)N1CCN(C(=O)c2ccc(-c3cncc(-c4ccnc(-c5ccccn5)n4)c3)cc2)CC1` [Example 3, (4-Isopropyl-piperazin-1-yl)-{4-[5-(2-pyridin-2-yl-pyrimidin-4-yl)-pyridin-3-yl]-phenyl}-methanone] registered an IC50 in data set [1] of 592 nM. Same read-out and setting: the result for `CC(C)N1CCN(C(=O)c2ccc(-c3cncc(-c4cc(OCc5ccccc5)nc(-c5ccccn5)n4)c3)cc2)CC1` [Example 11, {4-[5-(6-Benzyloxy-2-pyridin-2-yl-pyrimidin-4-yl)-pyridin-3-yl]-phenyl}-(4-isopropyl-piperazin-1-yl)-methanone] reads 24 nM. The molecule `Cc1cccc(-c2nc(OCc3ccccc3)cc(-c3cncc(-c4ccc(C(=O)N5CCN(C(C)C)CC5)cc4)c3)n2)n1` [Example 8, (4-{5-[6-Benzyloxy-2-(6-methyl-pyridin-2-yl)-pyrimidin-4-yl]-pyridin-3-yl}-phenyl)-(4-isopropyl-piperazin-1-yl)-methanone] returned a 50% inhibitory concentration (IC50) in data set [1] of 265 nM.

In the case of `CC(C)N1CCN(C(=O)c2ccc(-c3cncc(-c4cc(Cl)nc(-c5ccccn5)n4)c3)cc2)CC1` [Example 1, {4-[5-(6-Chloro-2-pyridin-2-yl-pyrimidin-4-yl)-pyridin-3-yl]-phenyl}-(4-isopropyl-piperazin-1-yl)-methanone], the 50% inhibitory concentration (IC50) in data set [1] came to 335 nM.

As for `c1ccc(-c2cc(-c3cn[nH]c3-c3ccccn3)ccn2)cc1` [GW6604], in data set [2] (setting [4]), the “inhibition of extracellular matrix deposition” value is 60% and the “prevention of the death rate” value is 40%. Moreover, the side effects entry in data set [2] (during the 3 weeks treatment) was “no obvious side effects”. Regarding `Cc1cccc(-c2nc(OCCc3c[nH]c4ccccc34)cc(-c3cccnc3)n2)n1` [Example 6, 3-{2-[2-(6-Methyl-pyridin-2-yl)-6-pyridin-3-yl-pyrimidin-4-yloxy]-ethyl}-1H-indole], in data set [1], the IC50 was found to be 261 nM.

B1: Follistatin: an antagonist of activin signalling (protein, UniProt P19883 30-344, looked up)
Follistatin: GNCWLRQAKNGRCQVLYKTELSKEECCSTGRLSTSWTEEDVNDNTLFKWMIFNGGAPNCIPCKETCENVDCGPGKKCRMNKKNKPRCVCAPDCSNITWKGPVCGLDGKTYRNECALLKARCKEQPELEVQYQGRCKKTCRDVFCPGSSTCVVDQTNNAYCVTCNRICPEPASSEQYLCGNDGVTYSSACHLRKATCLLGRSIGLAYEGKCIKAKSCEDIQCTGGKKCLWDFKVGRGRCSLCDELCPDSKSDEPVCASDNATYASECAMKEAACSSGVLLEVKHSGSCNSISEDTEEEEEDEDQDYSFPISSILEW
Regarding B1, in data set [3], the “effect on lung fibrosis” value was “attenuated lung fibrosis”.

The IC50 is the concentration at which inhibition is half-maximal. A low value points to greater potency.
